Data published in PMC9145865, “Effects of Rare Phytocannabinoids on the Endocannabinoid System of Human Keratinocytes” (International Journal of Molecular Sciences, 2022).
pIC50: −log10 of the molar value.

Columns and labels:
FAAH = test: Western blot protein expression of FAAH; format: cell-based, human; details: HaCaT cells, half-IC50 dose, 24 h, vs. control
Protocol: (§1) The HaCaT cells were seeded into 6-well plates at a density of 4 × 10^4 per well, incubated overnight and then treated with the selected pCBs (6.0 µM of CBG, 4.0 µM of CBC, 9.0 µM of THCV and 13.0 µM of CBGA) for 24 h. The cell pellets were collected and then lysed in an ice-cold lysis buffer (10 mM of EDTA, 50 mM of pH 7.4 Tris–HCl, 150 mM of sodium chloride, 1% Triton-X-100, 2 mM of phenylmethylsulfonyl fluoride, 2 mM of sodium orthovanadate, […] of leupeptin and […] of aprotinin). The amount of protein was determined using the Bio-Rad Protein assay (Bio-Rad Laboratories, Hemel Hempstead, UK). An equal amount of protein (60 µg) was loaded onto 10% sodium dodecyl sulfate–polyacrylamide gels and blotted onto polyvinylidene fluoride sheets (Amersham Biosciences, Piscataway, NJ, USA). The membranes were blocked with dried 5% non-fat milk for 1 h and then incubated with suitable primary antibodies. Detection was performed using Azure Biosystems c400 (Dublin, CA, USA). The membranes were stripped using the Restore Western Blot Stripping Buffer from Thermo Fisher Scientific (Waltham, MA, USA) for 30 min under agitation at room temperature, according to the manufacturer’s instructions. The primary antibodies (Table 6) that were used were obtained from the following sources: […]

CB2 = test: qRT-PCR gene expression of CB2; format: cell-based, human; details: HaCaT cells, half-IC50 dose, 24 h, vs. control
Protocol: (§2) The HaCaT cells were seeded into 6-well plates at a density of 4 × 10^4 per well, incubated overnight and then treated with the selected pCBs (CBG (6.0 µM), CBC (4.0 µM), THCV (9.0 µM) and CBGA (13.0 µM)) for 24 h. The cell pellets were collected and RT-PCR reactions were performed using the RevertAid H Minus First Strand cDNA Synthesis Kit. The relative abundance was assessed via RT quantitative PCR (RT-qPCR) using the SensiFAST SYBR Lo-ROX Kit in an Applied Biosystems 7500 Fast Real-Time PCR System (Life Technologies). To provide the precise quantification of the initial target in each PCR reaction, the amplification plot was examined, as well as the point of early log phase of the product accumulation, which was defined by assigning a fluorescence threshold above the background that was defined as the threshold cycle number or “Ct. Differences” in threshold cycle number that was used to quantify the relative amount of the PCR targets that were contained within each tube. After PCR, a dissociation curve (melting curve) was constructed in the range of 60 °C to 95 °C [62] to evaluate the specificity of the amplification products. The relative expression of the different amplicons was calculated using the delta–delta Ct (ΔΔCt) method and then converted into the relative expression ratio (2^−ΔΔCt) for statistical analysis. All data were normalized to the endogenous reference genes β-actin and glyceraldehyde-3-phosphate dehydrogenase. The specific primers (Table 5) that were used were designed and ordered from Integrated DNA Technologies (IDT; Coralville, IA, USA) with the following sequences: […]

PPARγ = test: qRT-PCR gene expression of PPARγ; format: cell-based, human; details: HaCaT cells, half-IC50 dose, 24 h, vs. control
Protocol: as §2

CB1 [1] = test: qRT-PCR gene expression of CB1; format: cell-based, human; details: HaCaT cells, half-IC50 dose, 24 h, vs. control
Protocol: as §2

HaCaT cells = test: MTT cytotoxicity assay; format: cell-based, human; details: for pIC50: Homo sapiens, HaCaT cell viability; for relative toxicity on HaCaT cells: 6-24 h
Protocol: Immortalized HaCaT cells from the original depositor (DKFZ, Heidelberg) were purchased from CLS-Cell Lines Service (code 300493) and were of […] skin type (phototype). In all experiments, the HaCaT cells were cultured at 37 °C in a humidified 5% CO2 atmosphere in high-glucose Dulbecco’s Modified Eagle Medium (DMEM-HG), which was supplemented with 10% fetal bovine serum, and were used at the 5th–6th passage. Specific pCBs (CBG, CBC, THCV and CBGA) were used to treat the HaCaT cells at different time points (6 h, 12 h and 24 h) and at different concentrations (0.5 µM, 1.0 µM, 2.5 µM, 5.0 µM, 10 µM and 25 µM). Various doses of these pCBs were added directly to culture medium (with 1% fetal bovine serum) and the vehicles alone were added to controls, as follows: 0.8% methanol for CBG and CBC; 0.6% methanol for THCV; 0.6% acetonitrile for CBGA.
The HaCaT cells were seeded into 96-well plates at a density of 1 × 10^4 per well, incubated overnight and then treated with the selected pCBs at different concentrations (0.5 μM, 1.0 μM, 2.5 μM, 5.0 μM, 10 μM and 25 μM) for 6 h, 12 h and 24 h. Cell viability was assessed using a mitochondrial-dependent reduction of 3-[4,5-dimethylthiazol-2-yl]-2,5-diphenyl tetrazolium bromide (MTT) to purple formazan. After 4 h, the MTT solution was discarded and dimethyl sulfoxide (DMSO) was added to dissolve the formazan crystals. The cell viability was calculated by subtracting the 630 nm OD background from the 570 nm OD total signal of the cell-free blank of each sample and was expressed as percentage of the control (100%).

MAGL [2] = test: Western blot protein expression of MAGL; format: cell-based, human; details: HaCaT cells, half-IC50 dose, 24 h, vs. control
Protocol: as §1

CB1 [3] = test: Western blot protein expression of CB1; format: cell-based, human; details: HaCaT cells, half-IC50 dose, 24 h, vs. control
Protocol: as §1

DAGLα = test: Western blot protein expression of DAGLα; format: cell-based, human; details: HaCaT cells, half-IC50 dose, 24 h, vs. control
Protocol: as §1

MAGL [4] = test: qRT-PCR gene expression of MAGL; format: cell-based, human; details: HaCaT cells, half-IC50 dose, 24 h, vs. control
Protocol: The HaCaT cells were seeded into 6-well plates at a density of 4 × 10^4 per well, incubated overnight and then treated with the selected pCBs (CBG (6.0 µM), CBC (4.0 µM), THCV (9.0 µM) and CBGA (13.0 µM)) for 24 h. The cell pellets were collected and RT-PCR reactions were performed using the RevertAid H Minus First Strand cDNA Synthesis Kit. The relative abundance was assessed via RT quantitative PCR (RT-qPCR) using the SensiFAST SYBR Lo-ROX Kit in an Applied Biosystems 7500 Fast Real-Time PCR System (Life Technologies). To provide the precise quantification of the initial target in each PCR reaction, the amplification plot was examined, as well as the point of early log phase of the product accumulation, which was defined by assigning a fluorescence threshold above the background that was defined as the threshold cycle number or “Ct. Differences” in threshold cycle number that was used to quantify the relative amount of the PCR targets that were contained within each tube. After PCR, a dissociation curve (melting curve) was constructed in the range of 60 °C to 95 °C [62] to evaluate the specificity of the amplification products. The relative expression of the different amplicons was calculated using the delta–delta Ct (ΔΔCt) method and then converted into the relative expression ratio (2^−ΔΔCt) for statistical analysis. […]

skin = system: skin; design: method as in PMID 35056807; details: applied topically; ref [59]; cited from earlier work

CCCCCc1cc(O)c2c(c1)OC(C)(CCC=C(C)C)C=C2 (stereo not drawn) [CBC, cannabichromene]
FAAH protein expression (in words) (FAAH): significantly increased
Gene Expression CB2 (CB2): ↓++
gene expression of CB2 (in words) (CB2): significantly downregulated
Gene Expression PPARγ (PPARγ): ↓++
gene expression of PPARγ (in words) (PPARγ): reduced
Gene Expression CB1 (CB1 [1]): ↓++++
gene expression of CB1 (in words) (CB1 [1]): significantly downregulated
pIC50 (HaCaT cells; 6 h): 4.82
pIC50 (HaCaT cells; 12 h): 4.81
pIC50 (HaCaT cells; 24 h): 5.09

CCCc1cc(O)c2c(c1)OC(C)(C)[C@@H]1CCC(C)=C[C@@H]21 [THCV, Δ^9-tetrahydrocannabivarin]
Gene Expression PPARγ (PPARγ): ↓++++
gene expression of PPARγ (in words) (PPARγ): significantly reduced
MAGL protein expression (in words) (MAGL [2]): increased
Protein Expression MAGL (MAGL [2]): ↑++++
relative toxicity on HaCaT cells (HaCaT cells): least toxic
pIC50 (HaCaT cells; 6 h): 4.84
pIC50 (HaCaT cells; 12 h): 4.65
pIC50 (HaCaT cells; 24 h): 4.73
CB1 protein expression (in words) (CB1 [3]): significantly reduced
Protein Expression CB1 (CB1 [3]): ↓+
DAGLα protein expression (in words) (DAGLα): increased
Protein Expression DAGLα (DAGLα): ↑+++

CCCCCc1cc(O)c(C/C=C(\C)CCC=C(C)C)c(O)c1 [CBG, cannabigerol]
gene expression of CB2 (in words) (CB2): significantly upregulate
Gene Expression CB1 (CB1 [1]): ↑++++
gene expression of CB1 (in words) (CB1 [1]): significantly upregulate
gene expression of MAGL (in words) (MAGL [4]): significantly increase
pIC50 (HaCaT cells; 6 h): 4.87
pIC50 (HaCaT cells; 12 h): 4.89
pIC50 (HaCaT cells; 24 h): 4.93
skin health after topical application (skin): reducing the appearance of redness and improving barrier function

CCCCCc1cc(O)c(C/C=C(\C)CCC=C(C)C)c(O)c1C(=O)O [CBGA, cannabigerolic acid]
FAAH protein expression (in words) (FAAH): significantly increased
Protein Expression FAAH (FAAH): NAPE-PLD ↑++++ FAAH ↑++++ DAGLα ↑++++ MAGL ↑++++
MAGL protein expression (in words) (MAGL [2]): increased
Protein Expression MAGL (MAGL [2]): NAPE-PLD ↑++++ FAAH ↑++++ DAGLα ↑++++ MAGL ↑++++
relative toxicity on HaCaT cells (HaCaT cells): least toxic
pIC50 (HaCaT cells; 6 h): < 4.60
pIC50 (HaCaT cells; 12 h): 4.61
pIC50 (HaCaT cells; 24 h): < 4.60
CB1 protein expression (in words) (CB1 [3]): significantly reduced
Protein Expression CB1 (CB1 [3]): ↓++++
DAGLα protein expression (in words) (DAGLα): increased
Protein Expression DAGLα (DAGLα): NAPE-PLD ↑++++ FAAH ↑++++ DAGLα ↑++++ MAGL ↑++++
